Patent US20190292559A1, “NUCLEOTIDE SEQUENCE FOR IMPROVING RESISTANCE AGAINST PLANT PATHOGENS” (CONSEJO SUPERIOR DE INVESTIGACIONES CIENTIFICAS (CSIS), priority 2016, published 2019)

Tests used:
stomata guard cells = experiment: Stomatal aperture measurements (MAMP-induced closure, COR-induced reopening); format: cell-based, Arabidopsis; conditions: leaves incubated with MAMPs and 2 μM COR simultaneously
Description: Whole leaves from 4- to 6-week-old Arabidopsis plants were collected and exposed to white light for 1.30 hours while floating in a solution containing 50 mM KCl, 10 μm CaCl2, and 10 mm MES-KOH pH=6.1 (opening stomata buffer) with moderate shaking (50 rpm) to induce homogenous stomatal aperture among all Arabidopsis lines to compare. To do the MAMP-induced closure assays, the previous solution was removed and whole leaves were immersed in opening stomata buffer containing Pto DC3000 MAMP extracts at OD600=1,5 (7,5×10^8 cfu/ml), 2 μM of coronatine or a mock solution. Samples were further incubated under the same previous conditions for 4-5 hours. Then, leaves were rapidly peeled and abaxial epidermal peels were placed on cover slips and observed with a microscope (Leica DMR). Stomatal aperture (width/length) was measured using ImageJ software. Error bars represent standard error of the mean (SEM) (n=20). Stomatal experiments were repeated at least three independent times and representative results are shown.
We next analyzed the ability of JAZ2-3 to close stomata upon microbial perception and reopen it in the presence of COR. […] Typically, Pto DC3000 MAMPs were used at optical density at 600 nm OD600=1,5 (7,5×10^8 cfu/ml) for incubation with leaves (Stomatal Aperture Measurements) or Arabidopsis seedlings (Quantitative RT-PCR). […]

JAZ2 protein = molecular target: T1, JAZ2 protein (Arabidopsis thaliana, UniProt O04197+Q9S7M2); experiment: JAZ2 protein stability (35S JAZ2-GUS staining); format: cell-based; conditions: JAZ2-GUS transgenic seedlings, 3 h
T1 construct: expressed in transfected cells
T1 sequence (Q9S7M2 1-249): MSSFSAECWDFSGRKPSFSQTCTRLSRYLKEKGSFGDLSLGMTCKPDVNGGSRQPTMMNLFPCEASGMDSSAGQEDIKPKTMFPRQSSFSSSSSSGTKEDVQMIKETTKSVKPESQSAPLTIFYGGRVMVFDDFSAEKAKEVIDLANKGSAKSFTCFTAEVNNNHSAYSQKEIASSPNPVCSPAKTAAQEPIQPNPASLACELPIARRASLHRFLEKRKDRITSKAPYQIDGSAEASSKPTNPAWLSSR
T1 sequence (O04197 1-592): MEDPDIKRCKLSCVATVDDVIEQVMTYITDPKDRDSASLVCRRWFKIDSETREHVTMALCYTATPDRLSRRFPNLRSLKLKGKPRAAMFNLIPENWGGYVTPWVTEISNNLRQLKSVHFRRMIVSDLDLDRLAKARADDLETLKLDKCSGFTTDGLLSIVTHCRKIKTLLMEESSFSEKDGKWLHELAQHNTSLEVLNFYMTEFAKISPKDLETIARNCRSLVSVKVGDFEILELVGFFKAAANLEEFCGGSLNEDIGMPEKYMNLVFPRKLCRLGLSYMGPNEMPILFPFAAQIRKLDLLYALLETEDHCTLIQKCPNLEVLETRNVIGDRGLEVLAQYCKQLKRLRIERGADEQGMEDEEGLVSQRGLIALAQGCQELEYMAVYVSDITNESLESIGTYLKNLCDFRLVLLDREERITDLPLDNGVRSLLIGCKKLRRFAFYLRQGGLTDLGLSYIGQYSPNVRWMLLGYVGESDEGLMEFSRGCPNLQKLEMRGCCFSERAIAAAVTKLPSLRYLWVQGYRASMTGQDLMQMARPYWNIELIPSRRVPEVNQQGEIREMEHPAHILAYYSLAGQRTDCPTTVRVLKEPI
T1 sequence (Q39255 1-160 partner): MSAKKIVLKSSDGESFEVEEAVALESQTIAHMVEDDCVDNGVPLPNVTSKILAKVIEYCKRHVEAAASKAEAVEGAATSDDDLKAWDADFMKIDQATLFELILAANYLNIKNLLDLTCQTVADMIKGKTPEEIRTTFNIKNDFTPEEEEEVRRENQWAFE
Description: For JAZ promoter:GUS expression experiments, five to seven days-old seedlings were treated with mock solution or 50 μM JA for 2 h and GUS stained as previously described (Fernandez-Calvo, P. et al. Plant Cell. 2011; 23(2): 701-715). For JAZ2 protein stability experiments, seven to nine days-old seedlings were treated with mock solution or 50 nM COR for 3 h. Then, samples were placed in staining solution containing 50 mM phosphate buffer, pH 7, 0.1% (v/v) Triton X-100 (Sigma-Aldrich), 2 mM 5-bromo-4-chloro-3-indolyl b-D glucuronic acid (X-Gluc, Glycosynth), 1 mM potassium-ferrocyanide (Sigma-Aldrich), and 1 mM potassium-ferricyanide (Sigma-Aldrich) and incubated at 37° C. overnight. After staining, the tissue was soaked several times in 75% ethanol and kept in 5% glycerol until being photographed with a Leica DMR UV/VIS microscope.

JAZ1 promoter = experiment: pJAZ1:GUS promoter expression (GUS staining); format: cell-based, Arabidopsis; conditions: 50 μM JA, 2 h
Source text: (§1) Transgenic Arabidopsis lines expressing pJAZ:GUS promoter fusions were obtained by cloning the corresponding pJAZ PCR products (pJAZ1 fw cacc[…] [SEQ ID NO: 29]; pJAZ1 rev […] [SEQ ID NO: 30]; pJAZ2 fw cacc[…] [SEQ ID NO: 31]; pJAZ2 rev […] [SEQ ID NO: 32]; pJAZ3 fw cacc[…] [SEQ ID NO: 33]; pJAZ3 rev […] [SEQ ID NO: 34]) into the pENTR™/D-TOPO® system (Invitrogen) and then transferring them to pGWB3. Agrobacterium strain GV3101, containing these constructs, was used to transform Col-0 plants by floral dipping (Clough, S. J. and Bent, A. F. Plant J. 1998, 16(6): 735-743). Several transgenic lines were checked for Kanamycin and Hygromycin resistance and lines carrying one insertion were driven to homozygosis and used for further analysis. pJAZ2:GUS in coi1-30 background was generated by crossing the corresponding parental single homozygous lines. Arabidopsis lines expressing pMYC3:GUS and pMYC4:GUS promoter fusions, were previously reported (Fernandez-Calvo, P. et al. Plant Cell. 2011, 23(2): 701-715). The lines JAZ2-3 (RIKEN_ 13-5433-1) and JAZ2ΔJas (GABI_169B06) were obtained from the Nottingham Arabidopsis Stock Centre. The line JAZ1ΔJas (SEQ ID NO: 61) was obtained from an Arabidopsis activation tagging population (Weigel, D. et al. Plant Physiol. 2000, 122(4): 1003-1013). […]

JAZ2 promoter = experiment: pJAZ2:GUS promoter expression (GUS staining); format: cell-based, Arabidopsis; conditions: 50 μM JA, 2 h, young seedlings
Source text: as §1

Row | SMILES | COR-induced stomata reopening (stomata guard cells) | COR concentration inducing rapid degradation of JAZ2 protein at guard cells (JAZ2 protein) | JAZ1 expression (pJAZ1:GUS) after JA treatment (JAZ1 promoter) | JAZ2 expression (pJAZ2:GUS) after JA treatment (JAZ2 promoter)
1 | CC[C@H]1C=C(C(=O)N[C@@]2(C(=O)O)C[C@@H]2CC)[C@H]2CCC(=O)[C@H]2C1 [COR, coronatine] | triggered COR-induced stomata reopening in JAZ2-3 and WT plants, but not in coi1-30 | ≤ 50 nM |  | 
2 | CC/C=C\C[C@H]1C(=O)CC[C@@H]1CC(=O)O [JA, jasmonic acid] |  |  | strongly induced JAZ1 in roots and mesophyll cells | induced it in roots and mesophyll cells of young seedlings
